Measured values published in patent US20220226343A1, “3-AMINO-4-[4-[4 (DIMETHYLCARBAMOYL) PHENYL]-1,4-DIAZEPAN-1-YL]THIENO[2,3-B]PYRIDINE-2-CARBOXAMIDE FOR USE IN CANCER THERAPY AND FORMULATIONS COMPRISING THE SAME” (University of South Carolina, priority 2019, published 2022).

Assays:
MYC-CAP-CR cells [1] = experiment: Short-term cell proliferation assay, MYC-CAP-CR; assay type: cell-based, murine; settings: androgen-containing media
From the text: (§1) MYC-CaP-CR cells (Ellis L. et al., 2012. Prostate 72(6):587-591) were selected for castration resistance from genetically engineered MYC-CaP cells that express MYC from an AR-responsive promoter (Watson P A, et al., 2005. Cancer Res 65(24):11565-11571). Castration resistance in these cells is associated with the overexpression of full-length AR rather than an AR variant, such as AR-V7 in 22rv1 (Olson B M, et al., 2017. Cancer immunology research 5(12):1074-1085).

MYC-CAP-CR cells [2] = experiment: Long-term clonogenic assay, MYC-CaP-CR; assay type: cell-based, murine; settings: 1 μM Senexin B, 1 μM 15u, 5 μM enzalutamide
From the text: as §1

MYC-CaP-CR tumors = MYC-CaP-CR tumors subcutaneous in intact FVB male mice; assay type: in vivo, mouse
From the text: as §1

[3] = test system: PSA expression in CRPC cell line C4-2; experiment: PSA expression in cell culture supernatant of C4-2 cells; assay type: cell-based; settings: C4-2 culture supernatant, 4-day treatment, FBS-supplemented regular media
From the text: CDK8/19 inhibition decreases the expression of certain androgen-receptor (AR) inducible genes including PSA, the most common marker of prostate cancer, and the growth of castration-refractory prostate cancers (CRPC).

[4] = test system: 4T1 murine TNBC lung metastasis; experiment: 4T1 breast cancer metastasis survival after primary tumor removal; assay type: in vivo, mouse; settings: Senexin B medicated food (350 ppm) plus one oral dose 50 mg/kg
Description: 4T1 is a murine triple-negative breast cancer (TNBC) cell line, which is highly metastatic to the lungs. […] Parental and CDK8-knockdown 4T1 cells (n=10) were injected orthotopically in the mammary fat pad and the primary tumors were removed 17 days later. Following surgery, all the mice eventually died with lung metastases. […] However, the loss of CDK8 was associated with a strong increase in the survival of mice (FIG. 10C). […]

[5] = test system: CRPC cell line 22rv1 xenograft; settings: Senexin B 133 mg/kg once a day or 66 mg/kg twice a day (FIG. 8D)
CDK8/19 = experiment: NFκB reporter assay in parental 293 reporter cells; assay type: cell-based; settings: NFκB Activity Assay as described in Example 1; read-out: Inhibition Potency HEK293-NFkB-Luc Assay
From the text: We have used a cell-based assay to measure the inhibition of CDK8/19 activity by thienopyridine derivatives. This assay, based on the role of CDK8/19 in NFκB-driven transcription (Chen, 2017), measures the effects of CDK8/19 on the expression of firefly luciferase reporter from a NFκB-dependent promoter in 293 cells. Lentiviral vector pHAGE-NFKB-TA-LUC-UBC-dTomato-W (Addgene #49335) was introduced into 293 cells and a clonal cell line showing the strongest induction of luciferase expression upon TNFα treatment was established and used as the reporter cell line. As a control for CDK8/19 dependence of NFκB inhibition, we have also introduced the same reporter construct into 293 cells with CRISPR/CAS9 knockout of both CDK8 and CDK19.
FIG. 2C and Table 1 compares the IC50 values for different thienopyridines measured in the NFκB reporter assay in parental 293-derived reporter cell line to the cell-based activity values measured for the same compounds by Saito (2013) based on their effect on alkaline phosphatase (ALPase), an indicator of differentiation to osteoblasts in the mouse bone marrow stromal cell line ST2. The latter effects are expressed as EC200, a concentration that enhances ALPase activity to 200% of control.

CDC2L5 = target: T1, CDC2L5 (Homo sapiens, UniProt Q14004); experiment: KINOMEscan scanMAX; assay type: binding; settings: CDC2L5, 2000 nM
T1 construct: purchased DiscoverX (KINOMEscan scanMAX service)
T1 sequence (Q14004 whole entry): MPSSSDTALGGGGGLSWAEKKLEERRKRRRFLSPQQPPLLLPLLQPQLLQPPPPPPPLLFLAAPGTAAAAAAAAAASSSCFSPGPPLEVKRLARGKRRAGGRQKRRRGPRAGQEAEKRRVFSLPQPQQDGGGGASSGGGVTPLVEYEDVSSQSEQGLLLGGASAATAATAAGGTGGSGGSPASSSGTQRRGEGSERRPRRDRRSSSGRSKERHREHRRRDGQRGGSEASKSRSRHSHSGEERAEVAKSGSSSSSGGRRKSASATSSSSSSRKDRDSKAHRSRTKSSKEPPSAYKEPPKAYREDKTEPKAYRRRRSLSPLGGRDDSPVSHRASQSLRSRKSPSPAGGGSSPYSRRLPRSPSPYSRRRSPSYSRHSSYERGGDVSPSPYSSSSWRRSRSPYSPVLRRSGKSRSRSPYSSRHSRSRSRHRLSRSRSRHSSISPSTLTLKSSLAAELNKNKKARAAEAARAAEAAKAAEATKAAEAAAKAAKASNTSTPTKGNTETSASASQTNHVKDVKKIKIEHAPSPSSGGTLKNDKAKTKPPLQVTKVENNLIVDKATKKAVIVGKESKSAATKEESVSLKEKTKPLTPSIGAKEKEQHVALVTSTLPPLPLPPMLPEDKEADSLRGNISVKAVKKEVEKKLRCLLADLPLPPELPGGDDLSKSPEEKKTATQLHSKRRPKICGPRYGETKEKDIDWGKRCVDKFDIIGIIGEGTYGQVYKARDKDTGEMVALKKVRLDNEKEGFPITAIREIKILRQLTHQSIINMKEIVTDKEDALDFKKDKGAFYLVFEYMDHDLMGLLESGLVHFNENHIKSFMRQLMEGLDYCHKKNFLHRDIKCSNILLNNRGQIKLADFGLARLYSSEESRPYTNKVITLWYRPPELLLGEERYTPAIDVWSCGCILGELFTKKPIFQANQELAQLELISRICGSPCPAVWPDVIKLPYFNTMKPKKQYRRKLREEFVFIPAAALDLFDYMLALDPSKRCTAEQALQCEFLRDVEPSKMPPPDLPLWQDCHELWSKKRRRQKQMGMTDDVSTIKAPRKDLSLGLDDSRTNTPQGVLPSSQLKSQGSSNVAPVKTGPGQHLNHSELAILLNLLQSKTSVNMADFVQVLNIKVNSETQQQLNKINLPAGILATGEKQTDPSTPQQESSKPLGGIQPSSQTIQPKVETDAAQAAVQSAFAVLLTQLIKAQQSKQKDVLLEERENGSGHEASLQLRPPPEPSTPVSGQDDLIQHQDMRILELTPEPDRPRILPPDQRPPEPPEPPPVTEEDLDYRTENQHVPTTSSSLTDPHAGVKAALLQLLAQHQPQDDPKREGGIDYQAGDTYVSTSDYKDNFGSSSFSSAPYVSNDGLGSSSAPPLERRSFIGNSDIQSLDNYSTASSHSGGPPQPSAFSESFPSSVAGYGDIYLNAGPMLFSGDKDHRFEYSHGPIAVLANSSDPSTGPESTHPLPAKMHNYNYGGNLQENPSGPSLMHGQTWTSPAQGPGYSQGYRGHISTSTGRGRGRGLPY
From the text: (§2) Nat. Biotechnol. 23, 329-336 (2005).
(§3) Percent Control (% Ctrl).
(§4) % Ctrl=100×(TS−CPOS)/(CNEG−CPOS) (eqn 1)

FLT3(ITD) = experiment: KINOMEscan scanMAX; assay type: binding; settings: 2000 nM
From the text: as §2, §3, §4

FLT3(ITD, D835V) = experiment: KINOMEscan scanMAX; assay type: binding; settings: 2000 nM
From the text: as §2, §3, §4

FLT3(ITD, F691L) = experiment: KINOMEscan scanMAX; assay type: binding; settings: 2000 nM
From the text: as §2, §3, §4

PFCDPK1(P. falciparum) = target: T2, PFCDPK1(P. falciparum) (Plasmodium falciparum, UniProt P62344); experiment: KINOMEscan scanMAX; assay type: binding; settings: 2000 nM
T2 construct: DNA label (qPCR read-out); purchased DiscoveRx (KINOMEscan scanMAX)
T2 sequence (P62344 whole entry): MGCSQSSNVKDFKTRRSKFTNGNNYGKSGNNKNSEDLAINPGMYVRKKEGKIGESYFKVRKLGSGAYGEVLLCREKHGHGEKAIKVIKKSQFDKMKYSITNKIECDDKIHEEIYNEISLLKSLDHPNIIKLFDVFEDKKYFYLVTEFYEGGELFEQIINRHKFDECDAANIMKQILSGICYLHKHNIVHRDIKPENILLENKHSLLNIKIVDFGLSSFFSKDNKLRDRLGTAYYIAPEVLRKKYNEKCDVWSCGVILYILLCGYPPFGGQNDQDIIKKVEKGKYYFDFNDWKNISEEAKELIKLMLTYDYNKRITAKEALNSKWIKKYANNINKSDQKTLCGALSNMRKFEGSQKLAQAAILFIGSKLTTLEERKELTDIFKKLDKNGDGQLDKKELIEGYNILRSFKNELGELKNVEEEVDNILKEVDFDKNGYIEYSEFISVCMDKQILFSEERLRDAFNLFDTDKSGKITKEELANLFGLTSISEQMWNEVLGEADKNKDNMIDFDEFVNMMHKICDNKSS
From the text: as §2, §3, §4

PFPK5(P. falciparum) = target: T3, PFPK5(P. falciparum) (Plasmodium falciparum, UniProt P61075); experiment: KINOMEscan scanMAX; assay type: binding; settings: 2000 nM
T3 construct: purchased KINOMEscan (DiscoveRx) scanMAX panel
T3 sequence (P61075 whole entry): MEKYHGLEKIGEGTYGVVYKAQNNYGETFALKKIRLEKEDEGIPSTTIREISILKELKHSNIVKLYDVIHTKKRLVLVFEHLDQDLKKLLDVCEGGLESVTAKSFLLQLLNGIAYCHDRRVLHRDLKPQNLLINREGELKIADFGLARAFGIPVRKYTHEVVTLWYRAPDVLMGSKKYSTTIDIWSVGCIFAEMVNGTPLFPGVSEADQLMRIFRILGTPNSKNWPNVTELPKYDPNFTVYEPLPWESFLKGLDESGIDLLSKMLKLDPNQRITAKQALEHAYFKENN
From the text: as §2, §3, §4

PKNB(M. tuberculosis) = target: T4, PKNB(M. tuberculosis) (Mycobacterium tuberculosis, UniProt P9WI81); experiment: KINOMEscan scanMAX; assay type: binding; settings: 2000 nM
T4 construct: purchased DiscoveRx (KINOMEscan scanMAX panel)
T4 sequence (P9WI81 whole entry): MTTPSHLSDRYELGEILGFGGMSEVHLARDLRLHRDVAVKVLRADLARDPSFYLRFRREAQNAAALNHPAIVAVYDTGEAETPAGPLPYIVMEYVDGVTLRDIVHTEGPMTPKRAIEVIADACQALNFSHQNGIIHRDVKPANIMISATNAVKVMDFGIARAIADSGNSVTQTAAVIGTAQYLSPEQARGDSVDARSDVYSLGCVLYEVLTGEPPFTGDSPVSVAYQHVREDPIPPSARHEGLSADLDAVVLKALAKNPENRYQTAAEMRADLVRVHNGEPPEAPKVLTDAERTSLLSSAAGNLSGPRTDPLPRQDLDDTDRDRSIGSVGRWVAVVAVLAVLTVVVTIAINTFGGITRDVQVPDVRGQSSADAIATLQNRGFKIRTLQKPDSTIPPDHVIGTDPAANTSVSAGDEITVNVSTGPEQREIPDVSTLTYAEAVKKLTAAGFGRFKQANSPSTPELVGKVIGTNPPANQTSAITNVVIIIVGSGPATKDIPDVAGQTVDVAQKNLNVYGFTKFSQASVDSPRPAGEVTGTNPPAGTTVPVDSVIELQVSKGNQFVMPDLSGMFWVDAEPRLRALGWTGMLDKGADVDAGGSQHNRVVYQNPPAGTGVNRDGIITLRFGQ
From the text: as §2, §3, §4

PRP4 = target: T5, PRP4 (Homo sapiens, UniProt Q13523); experiment: KINOMEscan scanMAX; assay type: binding; settings: PRP4, 2000 nM
T5 construct: DNA label (qPCR read-out); purchased DiscoverX (KINOMEscan)
T5 sequence (Q13523 whole entry): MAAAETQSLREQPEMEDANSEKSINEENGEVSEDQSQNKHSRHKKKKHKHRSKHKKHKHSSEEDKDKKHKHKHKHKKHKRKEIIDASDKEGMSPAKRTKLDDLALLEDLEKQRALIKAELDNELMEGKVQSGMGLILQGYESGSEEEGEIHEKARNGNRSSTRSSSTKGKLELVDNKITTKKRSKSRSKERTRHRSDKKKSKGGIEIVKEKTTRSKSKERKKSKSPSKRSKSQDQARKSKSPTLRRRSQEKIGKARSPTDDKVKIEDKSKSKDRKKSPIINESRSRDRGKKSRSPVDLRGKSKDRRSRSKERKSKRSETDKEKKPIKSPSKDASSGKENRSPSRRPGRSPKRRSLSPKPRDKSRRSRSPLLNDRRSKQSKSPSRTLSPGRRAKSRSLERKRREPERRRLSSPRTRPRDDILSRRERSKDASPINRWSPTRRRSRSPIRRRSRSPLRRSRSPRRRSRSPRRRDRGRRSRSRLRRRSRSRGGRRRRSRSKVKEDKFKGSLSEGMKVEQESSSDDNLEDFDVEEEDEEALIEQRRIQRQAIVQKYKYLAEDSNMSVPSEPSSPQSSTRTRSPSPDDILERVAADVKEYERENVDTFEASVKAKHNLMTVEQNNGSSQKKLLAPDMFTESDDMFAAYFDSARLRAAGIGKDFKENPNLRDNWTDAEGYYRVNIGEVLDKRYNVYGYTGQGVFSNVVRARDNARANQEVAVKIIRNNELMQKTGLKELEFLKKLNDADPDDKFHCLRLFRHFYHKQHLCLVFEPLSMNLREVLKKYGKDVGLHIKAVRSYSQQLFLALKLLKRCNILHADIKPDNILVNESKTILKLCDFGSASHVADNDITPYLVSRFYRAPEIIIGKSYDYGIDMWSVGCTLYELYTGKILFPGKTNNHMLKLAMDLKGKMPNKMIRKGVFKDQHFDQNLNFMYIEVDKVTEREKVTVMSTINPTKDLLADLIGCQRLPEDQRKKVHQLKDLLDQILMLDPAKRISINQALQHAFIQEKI
From the text: as §2, §3, §4

in vivo = settings: female, CD-1, mouse, serum, po, 30 mg/kg
[6] = Oral PK of 15u and 15u_D6, female CD-1 mice; settings: 30 mg/kg, AUC within the first eight hours

## CNC(=O)c1ccc(N2C(=S)N(c3ccc(C#N)c(C(F)(F)F)c3)C(=O)C2(C)C)cc1F [enzalutamide]
MYC-CAP-CR cells [1]
  MYC-CAP-CR cell growth: paradoxically stimulated the growth
MYC-CAP-CR cells [2]
  MYC-CaP-CR colony formation: decreased MYC-CaP-CR colony formation
MYC-CaP-CR tumors
  MYC-CaP-CR tumor volume and weight: modest effect

## CN1CCN(C(=O)c2ccc3cc(CCNc4ncnc5ccc(C#N)cc45)ccc3c2)CC1 [Senexin B, reference compound]
[3]
  IC50: 255 nM
MYC-CAP-CR cells [1]
  MYC-CAP-CR cell growth: little effect
MYC-CAP-CR cells [2]
  MYC-CaP-CR colony formation: decreased MYC-CaP-CR colony formation
[4]
  survival after removal of the primary 4T1 tumor: statistically significant but moderate increase in survival
[5]
  22rv1 growth in castrated mice: significantly inhibited 22rv1 growth

## [2H]C([2H])([2H])N(C(=O)c1ccc(N2CCCN(c3ccnc4sc(C(N)=O)c(N)c34)CC2)cc1)C([2H])([2H])[2H] [Compound 15u_D6, 3-amino-4-(4-(4-(bis(methyl-d3)carbamoyl)phenyl)-1,4-diazepan-1-yl)thieno[2,3-b]pyridine-2-carboxamide]
CDK8/19
  IC50: 7.7 nM
CDC2L5
  % Ctrl: 80 % Ctrl
FLT3(ITD)
  % Ctrl: 72 % Ctrl
FLT3(ITD, D835V)
  % Ctrl: 34 % Ctrl
FLT3(ITD, F691L)
  % Ctrl: 75 % Ctrl
PFCDPK1(P. falciparum)
  % Ctrl: 61 % Ctrl
PFPK5(P. falciparum)
  % Ctrl: 67 % Ctrl
PKNB(M. tuberculosis)
  % Ctrl: 90 % Ctrl
PRP4
  % Ctrl: 88 % Ctrl
In vivo
  AUC(0-t): 7400 ng·h/mL
[6]
  PK of the D6 derivative compared with 15u: slightly improved the PK
